Source: US20230285347A1, “Preterm Labour with Prostaglandin E2 Receptor Agonists” (IMPERIAL COLLEGE INNOVATIONS LIMITED, priority 2020, published 2023)

How the values were obtained:
Type in all cases: cell-based
EP2 [1] = biological target: T1, EP2 (Homo sapiens, UniProt P43116); assay: PGE2 release in myometrial cells with/without oxytocin pre-treatment; settings: for effect of OT pre-treatment on ligand-induced PGE2 release: OT 1 hour, 100 nM, then ligand 6 hours, butaprost 10 μM, PGN9856i 100 nM, FIG. 12
T1 construct: primary human myocytes cultured from term pregnant, non-labouring, myometrium; endogenous in cells; host or cells: primary human myometrial cells (myocytes) cultured from pregnant myometrium
T1 sequence (P43116 whole entry): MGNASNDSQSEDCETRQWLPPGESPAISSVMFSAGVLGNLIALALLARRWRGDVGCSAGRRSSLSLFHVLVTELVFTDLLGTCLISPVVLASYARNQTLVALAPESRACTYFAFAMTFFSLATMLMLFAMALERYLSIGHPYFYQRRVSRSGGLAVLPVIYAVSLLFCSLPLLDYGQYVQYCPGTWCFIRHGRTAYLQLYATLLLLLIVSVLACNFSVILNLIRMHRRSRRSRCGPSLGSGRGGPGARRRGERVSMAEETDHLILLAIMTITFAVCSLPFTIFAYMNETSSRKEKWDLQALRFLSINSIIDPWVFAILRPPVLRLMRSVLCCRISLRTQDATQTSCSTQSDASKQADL
Experimental: Myometrial cells stimulated with either DMSO, butaprost (10 μM), AH13205 (10 μM) or PGN9856i (100 nM) for 6 hours, with/without OT pre-treatment (1 hour, 100 nM). Tissue culture media collected and used for ELISA. PGE2 concentrations normalised to butaprost. Data shown as mean±SEM from at least 3 independent experiments. One-way ANOVA with Dunnett's multiple comparison post-hoc test. One-sample t-test: *p<0.05.
Myometrial cells stimulated with DMSO or PGN9856i (100 nM) for 6 hours, with/without OT pre-treatment (1 hour, 100 nM). Tissue culture media collected and used for ELISA. PGE2 concentrations normalised to vehicle. Data shown as mean±SEM from at least 3 independent experiments. Unpaired t-test: *p<0.05.
Myometrial cells were treated for 6-hours with EP2 agonist (butaprost 10 μM, AH13205 10 μM or PGN9856i 100 nM) or DMSO with/without 1-hour OT (100 nM) pre-treatment. 1 mL media was collected from COX-2 experiments and immediately frozen at −80 degrees Celsius. Samples were defrosted at room temperature and vortexed before quantification of IL-6 concentrations via ELISA as per manufacturer's instructions (Enzo Lifesciences).

EP2 [2] = biological target: T1, EP2; assay: Intracellular cAMP in primary human myocytes from term pregnant non-labouring myometrium; settings: butaprost 10 μM, AH13205 10 μM, PGN9856i 100 nM, FIG. 5
Experimental: In the myometrium EP2 is an important regulator of parturition. To assess if PGN9856i, butaprost and AH13205 induce similar second messenger profiles in the myometrium as HEK 293 cells, primary human myocytes cultured from term pregnant, non-labouring, myometrium, were treated with each ligand and intracellular cAMP, calcium and PGE2 release was measured.
Myometrial tissue was acquired at St. Mary's hospital, Queen Charlotte and Chelsea hospital and Charing Cross hospital, London. Tissue was obtained from women provided with informed written consent with the approval from the Riverside Research Ethics Committee (RREC 3357, 1997-5089, 19/LO/1657) and experiments were carried out under the committee's guidelines and recommendations. Tissues were obtained from term (38+0-40 weeks gestation) pregnant women undergoing elective caesarean from the upper margin of the incision made at the lower segment of the uterus, before or after the onset of labor. Tissues taken from women in early labour (<3 cm cervical dilation) or late labour (>3 cm cervical dilation) with/without induction with syntocinon, an oxytocin analogue. Tissue was only taken from uncomplicated, singleton pregnancies.
Tissue was stored at 4° C. in phosphate buffered saline until fine dissection with scalpels and dissociation at 37° C. for 1 hour in a sterile-filtered mix of Dulbecco's modified Eagle's medium (DMEM) (Sigma Aldrich)/Ham's F-12 Nutrient Mixture (Sigma Aldrich) and serum-free DMEM (Sigma Aldrich) (1:1 v/v) containing collagenase 1A (Sigma Aldrich)(1 mg/ml), collagenase X (Sigma Aldrich)(1 mg/ml) and bovine serum albumin (Sigma Aldrich) (2 mg/ml). […]
Confluent myometrial cells were treated with/without OT (100 nM) for 1 hour before 3 PBS washes and the addition of […] IBMX (3-isobutyl-1-methylxanthine) in PBS for 5 minutes at 37° C. […] Lysates were normalized to protein concentration determined by Coomassie (Bradford) Protein Assay Kit and analysed as per manufacturers' protocol (Cisbio Gαs dynamic assay) using a PHERAstar FSX.

human FLAG-EP2 [3] = biological target: T2, human FLAG-EP2 (Homo sapiens, UniProt P43116); assay: Intracellular Ca2+ release in HEK 293 cells stably expressing EP2 (Fluo-4, confocal; Gαq/11 readout); settings: HEK 293 EP2 cells; butaprost 10 μM, AH13205 10 μM, PGN9856i 100 nM; vs vehicle; FIG. 3
T2 construct: FLAG; expressed in transfected cells
T2 sequence (P43116 whole entry): as above
Experimental: To measure Gαq/11 activation, HEK 293 cells stably expressing human FLAG-EP2 were pre-labelled with a Ca2+ indicator dye and acutely stimulated with each ligand.
HEK 293 cells, prepared following the same methodology as outlined in Example 1, were seeded onto Mattek dishes with 14 mm by 1.5 mm glass coverslips. Cells were incubated with Fluo-4am Ca2+ indicator (ThermoFisher) as per manufacturer's instructions. […]. Time-series images were acquired using a Leica SP5 confocal microscope, Leica LAS AF image acquisition software and a 488 nm excitation laser. HEK cells were imaged using a 10× dry objective. EP2 agonists (butaprost 10 μM, AH13205 10 μM or PGN9856i 100 nM) were added following measurement of basal fluorescence. Raw files were analysed using Fiji Time series analyser plugin to find the maximal fluorescent intensity, which was then averaged across cells in each condition.
The maximal fluorescence intensity was measured by live confocal microscopy.

human FLAG-EP2 [4] = biological target: T2, human FLAG-EP2; assay: PGE2 release by ELISA in HEK 293 cells stably expressing EP2; settings: HEK 293 EP2 cells; 6 hours; butaprost 10 μM, AH13205 10 μM, PGN9856i 100 nM; FIG. 4
Experimental: COX-2 is an inflammatory mediator that drives PGE2 production. The inventors had previously shown EP2-dependent COX-2 release to be downstream of Ca2+ release in primary human myometrium and that 6-hour agonist treatment is necessary for increasing COX-2 levels and PGE2 secretion (Kandola et al, 2014). HEK 293 cells stably expressing human FLAG-EP2 were stimulated for 6 hours with an EP2 agonist (butaprost 10 μM, AH13205 10 μM or PGN9856i 100 nM) or DMSO. 1 mL media was collected from COX-2 experiments and immediately frozen at −80 degrees Celsius. […]

effect of OT pre-treatment on ligand-induced PGE2 release (EP2 [1])	SMILES	effect on OT-mediated PGE2 release (EP2 [1]; myometrial cells treated with OT (100 nM, 1 hour), then PGN9856i 100 nM for 6 hours, FIG. 13)	release of intracellular cAMP (EP2 [2])	intracellular Ca2+ release (maximal fluorescence intensity) (human FLAG-EP2 [3])	PGE2 levels (human FLAG-EP2 [4])
unchanged by OT pre-treatment	CC(C)OC(=O)COc1cccc(NC(=O)c2cc(-c3cccc(F)c3)ccc2F)c1 [PGN9856i, propan-2-yl 2-(3-{3′,4-difluoro-[1,1′-biphenyl]-3-amido}phenoxy)acetate]	significantly reduce OT-mediated PGE2 release	able to elicit release of intracellular cAMP	unable to elicit intracellular Ca2+ release	unable to increase PGE2 levels over basal levels
significantly increased by OT	CCCC1([C@H](O)C/C=C/[C@H]2[C@H](O)CC(=O)[C@@H]2CCCCCCC(=O)OC)CCC1 [butaprost]		able to elicit release of intracellular cAMP	enhanced Ca2+ significantly above vehicle	efficacious activators of the pathway
